Experimental data: ChEMBL document CHEMBL2331515, “Design, synthesis, and pharmacological characterization of novel endomorphin-1 analogues as extremely potent μ-opioid agonists” (J Med Chem, 2013)
Active and inactive are the calls of the source. No cut-off for these calls is given here.

How the values were obtained:
[1] = target: Mu-type opioid receptor (Cavia porcellus, UniProt P97266); experiment: Agonist activity at mu-type opioid receptor in guinea pig ileum assessed as inhibition of electrically evoked muscle contraction; type: tissue-based
Mu-type opioid receptor (Cavia porcellus, UniProt P97266), sequence (P97266 whole entry): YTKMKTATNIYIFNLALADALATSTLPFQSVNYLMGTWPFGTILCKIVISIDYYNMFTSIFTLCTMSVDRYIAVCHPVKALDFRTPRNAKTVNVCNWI

[2] = Half life in mouse brain homogenate by RP-HPLC analysis; type: ADME, tissue-based
[3] = system: Mus musculus; experiment: Antinociceptive activity in Kunming mouse assessed as tail withdrawal latency at 2 mg/kg, iv after 15 to 20 mins by hot water tail-flick test relative to control; type: functional, organism-based; parameters: dose 2 mg/kg
[4] = target: T1, Mu-type opioid receptor (Homo sapiens, UniProt P35372); experiment: Agonist activity at FLAG-tagged mu-type opioid receptor (unknown origin) expressed in HEK293 cells assessed as stimulation of ERK1/2 phosphorylation at 1 uM after 10 mins by Western blotting analysis; type: cell-based; conditions: TDE = time-dependent effect
T1 sequence (P35372 whole entry): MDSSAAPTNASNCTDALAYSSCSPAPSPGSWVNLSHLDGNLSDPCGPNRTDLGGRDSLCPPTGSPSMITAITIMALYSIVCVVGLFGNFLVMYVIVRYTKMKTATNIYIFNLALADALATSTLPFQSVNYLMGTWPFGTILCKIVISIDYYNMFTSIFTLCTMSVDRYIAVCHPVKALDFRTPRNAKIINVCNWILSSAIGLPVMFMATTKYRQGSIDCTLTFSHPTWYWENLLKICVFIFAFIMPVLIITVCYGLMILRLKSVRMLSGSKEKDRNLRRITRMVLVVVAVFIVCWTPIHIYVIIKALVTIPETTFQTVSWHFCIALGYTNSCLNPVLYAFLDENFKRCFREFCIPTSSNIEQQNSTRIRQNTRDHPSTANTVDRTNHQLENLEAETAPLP

[5] = target: T1, Mu-type opioid receptor; experiment: Agonist activity at FLAG-tagged mu-type opioid receptor (unknown origin) expressed in HEK293 cells assessed as inhibition of forskolin-stimulated cAMP accumulation after 30 mins by liquid scintillation counting analysis relative to DAMGO; type: functional, cell-based
[6] = system: Mus musculus; experiment: Antinociceptive activity in icv dosed Kunming mouse assessed as tail withdrawal latency by hot water tail-flick test in presence of naloxone; type: functional, organism-based
[7] = target: Mu-type opioid receptor (Mus musculus) (UniProt P42866); experiment: Agonist activity at mu-type opioid receptor in Kunming mouse vas deferens assessed as inhibition of electrically evoked muscle contraction in presence of naltrindole
Mu-type opioid receptor (Mus musculus), sequence (P42866 whole entry): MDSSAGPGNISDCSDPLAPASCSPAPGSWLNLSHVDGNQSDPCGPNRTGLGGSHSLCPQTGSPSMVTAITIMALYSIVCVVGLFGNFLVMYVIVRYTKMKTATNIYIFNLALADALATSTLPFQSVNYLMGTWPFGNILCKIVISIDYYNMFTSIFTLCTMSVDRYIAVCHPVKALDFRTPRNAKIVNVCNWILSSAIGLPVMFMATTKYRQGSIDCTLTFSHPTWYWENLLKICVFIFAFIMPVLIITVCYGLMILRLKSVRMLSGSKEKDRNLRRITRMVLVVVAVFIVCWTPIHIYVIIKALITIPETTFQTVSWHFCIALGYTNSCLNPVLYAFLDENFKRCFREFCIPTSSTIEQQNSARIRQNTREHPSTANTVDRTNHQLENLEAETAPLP

[8] = system: Mus musculus; experiment: Antinociceptive activity in Kunming mouse assessed as tail withdrawal latency at 2 mg/kg, iv by hot water tail-flick test in presence of naloxone methiodide; type: functional, organism-based; parameters: dose 2 mg/kg
[9] = system: Mus musculus; experiment: Antinociceptive activity in Kunming mouse assessed as tail withdrawal latency at 0.67 to 20 nmol/kg, icv by hot water tail-flick test; type: functional, organism-based; conditions: TDE = time-dependent effect
[10] = target: T1, Mu-type opioid receptor; experiment: Agonist activity at FLAG-tagged mu-type opioid receptor (unknown origin) expressed in HEK293 cells assessed as inhibition of forskolin-stimulated cAMP accumulation after 30 mins by liquid scintillation counting analysis; type: functional, cell-based
[11] = target: T2, Delta-type opioid receptor (Homo sapiens, UniProt P41143); experiment: Agonist activity at Myc-tagged delta-type opioid receptor (unknown origin) expressed in HEK293 cells assessed as inhibition of forskolin-stimulated cAMP accumulation after 30 mins by liquid scintillation counting analysis; type: functional, cell-based
T2 sequence (P41143 whole entry): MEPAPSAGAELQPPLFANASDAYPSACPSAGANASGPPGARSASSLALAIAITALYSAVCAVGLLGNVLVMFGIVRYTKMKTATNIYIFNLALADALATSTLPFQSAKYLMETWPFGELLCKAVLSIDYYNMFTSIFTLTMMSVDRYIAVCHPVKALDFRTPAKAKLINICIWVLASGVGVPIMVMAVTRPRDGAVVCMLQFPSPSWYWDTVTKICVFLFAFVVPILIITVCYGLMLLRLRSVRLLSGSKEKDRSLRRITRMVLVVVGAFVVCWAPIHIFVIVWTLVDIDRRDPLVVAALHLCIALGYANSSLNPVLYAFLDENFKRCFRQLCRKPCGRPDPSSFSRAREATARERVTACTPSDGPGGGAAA

[12] = target: Mu-type opioid receptor (Mus musculus, UniProt P42866); experiment: Agonist activity at mu-type opioid receptor in Kunming mouse vas deferens assessed as inhibition of electrically evoked muscle contraction
Mu-type opioid receptor (Mus musculus, UniProt P42866), sequence (P42866 whole entry): as the sequence (P42866 whole entry) above

[13] = species: Homo sapiens; experiment: Selectivity ratio of Ki for Myc-tagged delta-type opioid receptor (unknown origin) to Ki for FLAG-tagged mu-type opioid receptor (unknown origin)
[14] = Selectivity ratio of Ki for kappa-type opioid receptor (unknown origin) to Ki for FLAG-tagged mu-type opioid receptor (unknown origin); conditions: Homo sapiens
[15] = target: T2, Delta-type opioid receptor; experiment: Displacement of [3H]DPDPE from Myc-tagged delta-type opioid receptor (unknown origin) expressed in HEK293 cells after 60 mins by liquid scintillation counting analysis; type: cell-based
[16] = system: Mus musculus; experiment: Antinociceptive activity in Kunming mouse assessed as tail withdrawal latency at 2 mg/kg, iv by hot water tail-flick test in presence of naloxone; type: functional, organism-based; parameters: dose 2 mg/kg
[17] = target: T1, Mu-type opioid receptor; experiment: Agonist activity at FLAG-tagged mu-type opioid receptor (unknown origin) expressed in HEK293 cells assessed as stimulation of ERK1/2 phosphorylation at 1 uM after 2 mins by Western blotting analysis; type: cell-based
[18] = target: T2, Delta-type opioid receptor; experiment: Agonist activity at Myc-tagged delta-type opioid receptor (unknown origin) expressed in HEK293 cells assessed as inhibition of forskolin-stimulated cAMP accumulation after 30 mins by liquid scintillation counting analysis relative to DAMGO; type: functional, cell-based
[19] = target: T1, Mu-type opioid receptor; experiment: Displacement of [3H]DAMGO from FLAG-tagged mu-type opioid receptor (unknown origin) expressed in HEK293 cells after 60 mins by liquid scintillation counting analysis; type: cell-based
[20] = target: Kappa-type opioid receptor (Homo sapiens, UniProt P41145); experiment: Displacement of [3H]U69,593 from kappa-type opioid receptor (unknown origin) expressed in HEK293 cells after 60 mins by liquid scintillation counting analysis; type: cell-based
Kappa-type opioid receptor, sequence (P41145 whole entry): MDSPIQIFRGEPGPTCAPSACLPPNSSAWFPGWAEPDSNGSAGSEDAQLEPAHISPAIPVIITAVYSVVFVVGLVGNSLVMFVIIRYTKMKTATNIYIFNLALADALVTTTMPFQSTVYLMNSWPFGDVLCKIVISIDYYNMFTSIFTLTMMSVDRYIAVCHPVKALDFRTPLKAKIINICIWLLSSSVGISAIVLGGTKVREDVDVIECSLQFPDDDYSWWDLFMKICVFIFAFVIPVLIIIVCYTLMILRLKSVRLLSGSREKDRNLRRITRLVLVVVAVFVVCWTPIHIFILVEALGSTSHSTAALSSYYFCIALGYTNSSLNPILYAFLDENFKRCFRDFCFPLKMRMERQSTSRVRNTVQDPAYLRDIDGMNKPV

[21] = system: Mus musculus; experiment: Antinociceptive activity in icv dosed Kunming mouse assessed as tail withdrawal latency by hot water tail-flick test; type: functional; conditions: for ED50: central

SMILES	IC50 [1] [nM]	half-life [2] [h]	Activity [3]	Activity [4]	Emax [5] [%]	Activity [6]	inhibition [7]	Activity [8]	inhibition [10]	Activity [11]	EC50 [11] [nM]	IC50 [12] [nM]	Ratio Ki [13]	Ratio Ki [14]	Ki [15] [nM]	Activity [16]	Emax [18] [%]	Ki [19] [nM]	Ki [20] [nM]	EC50 [10] [nM]	other results
C=C(C(N)=O)[C@@H](NC(=O)[C@H](Cc1c[nH]c2ccccc12)NC(=O)[C@@H]1CCN(C(=O)[C@@H](N)Cc2c(C)cc(O)cc2C)C1)c1ccccc1	0.226	> 10	Active	tde	98.9	inactive	Active	Active	Dose-dependent effect	Dose-dependent effect	47.9	0.406	2770	17600	27.3	inactive	72.1	0.00986	174		Activity [9]: tde; Activity [17]: Active; Activity [21]: Dose-dependent effect; ED50 [21]: 0.000822 µmol/kg
C=C(C(N)=O)[C@@H](NC(=O)[C@H](Cc1c[nH]c2ccccc12)NC(=O)[C@H]1CCN(C(=O)[C@@H](N)Cc2ccc(O)cc2)C1)c1ccco1	8.12				94.9		Active		Dose-dependent effect	Dose-dependent effect		4.9	9170		6950			0.758		0.0933	
C=C(C(N)=O)[C@@H](NC(=O)[C@H](Cc1c[nH]c2ccccc12)NC(=O)[C@H]1CCN(C(=O)[C@@H](N)Cc2ccc(O)cc2)C1)c1ccccc1	3.21				95.5		Active		Dose-dependent effect	Dose-dependent effect		4.89	9720		5580			0.574		0.057	
C=C(C(N)=O)[C@@H](NC(=O)[C@H](Cc1c[nH]c2ccccc12)NC(=O)[C@H]1CCN(C(=O)[C@@H](N)Cc2c(C)cc(O)cc2C)C1)c1ccco1	0.834	> 10	Active	tde	98.6	inactive	Active	Active	Dose-dependent effect	Dose-dependent effect	47.3	0.962	2380	14100	30.4	inactive	72.2	0.0128	180	0.000109	Activity [9]: tde; Activity [17]: Active; Activity [21]: Dose-dependent effect; ED50 [21]: 0.00095 µmol/kg
C=C(C(=O)O)[C@@H](NC(=O)[C@H](Cc1c[nH]c2ccccc12)NC(=O)[C@@H]1CCCN1C(=O)[C@@H](N)Cc1c(C)cc(O)cc1C)c1ccccc1	0.467				97.2		Active		Dose-dependent effect	Dose-dependent effect	51.6	0.556	795	5960	25.6		77.5	0.0322	192	0.00013	
C=C(C(N)=O)[C@@H](NC(=O)[C@H](Cc1c[nH]c2ccccc12)NC(=O)[C@@H]1CCN(C(=O)[C@@H](N)Cc2c(C)cc(O)cc2C)C1)c1ccco1	0.167	> 10	Active	tde	99.5	inactive	Active	Active	Dose-dependent effect	Dose-dependent effect	89.3	0.548	5320	55100	19.8	inactive	73.8	0.00372	205		Activity [9]: tde; Activity [17]: Active; Activity [21]: Dose-dependent effect; ED50 [21]: 0.000532 µmol/kg
C=C(C(N)=O)[C@@H](NC(=O)[C@H](Cc1c[nH]c2ccccc12)NC(=O)[C@@H]1CCN(C(=O)[C@@H](N)Cc2ccc(O)cc2)C1)c1ccccc1	1.82				96.8		Active		Dose-dependent effect	Dose-dependent effect		2.28	9490		2810			0.296		0.0397	
CN1CC[C@]23c4c5ccc(O)c4O[C@H]2[C@@H](O)C=C[C@H]3[C@H]1C5			Active					Active								inactive					
C=C(C(=O)O)[C@@H](NC(=O)[C@H](Cc1c[nH]c2ccccc12)NC(=O)[C@@H]1CCCN1C(=O)[C@@H](N)Cc1c(C)cc(O)cc1C)c1ccco1	0.767				96.5		Active		Dose-dependent effect	Dose-dependent effect	48.9	0.533	548	4940	22.2		76.3	0.0405	200	0.000516	
C=C(C(N)=O)[C@@H](NC(=O)[C@H](Cc1c[nH]c2ccccc12)NC(=O)[C@@H]1CCN(C(=O)[C@@H](N)Cc2ccc(O)cc2)C1)c1ccco1	1.67				96.2		Active		Dose-dependent effect	Dose-dependent effect		2.91	16800		2780			0.165		0.00853	
